From patent US20240400553A1, “AMINE BASED MATRIPTASE 2 INHIBITORS AND USES THEREOF” (Disc Medicine, Inc., priority 2023, published 2024)
pKi: −log10 of the molar value.

These compounds were tested against T1, Human Recombinant Matriptase 2 (Homo sapiens, UniProt Q8IU80) (assay: Matriptase 2 inhibition, fluorescence based assay (Method I)). Details: Table A; Ki of Matriptase-2, class symbols; read-out: Mat-2 Ki.
T1 construct: made in house
T1 sequence (Q8IU80 1-811): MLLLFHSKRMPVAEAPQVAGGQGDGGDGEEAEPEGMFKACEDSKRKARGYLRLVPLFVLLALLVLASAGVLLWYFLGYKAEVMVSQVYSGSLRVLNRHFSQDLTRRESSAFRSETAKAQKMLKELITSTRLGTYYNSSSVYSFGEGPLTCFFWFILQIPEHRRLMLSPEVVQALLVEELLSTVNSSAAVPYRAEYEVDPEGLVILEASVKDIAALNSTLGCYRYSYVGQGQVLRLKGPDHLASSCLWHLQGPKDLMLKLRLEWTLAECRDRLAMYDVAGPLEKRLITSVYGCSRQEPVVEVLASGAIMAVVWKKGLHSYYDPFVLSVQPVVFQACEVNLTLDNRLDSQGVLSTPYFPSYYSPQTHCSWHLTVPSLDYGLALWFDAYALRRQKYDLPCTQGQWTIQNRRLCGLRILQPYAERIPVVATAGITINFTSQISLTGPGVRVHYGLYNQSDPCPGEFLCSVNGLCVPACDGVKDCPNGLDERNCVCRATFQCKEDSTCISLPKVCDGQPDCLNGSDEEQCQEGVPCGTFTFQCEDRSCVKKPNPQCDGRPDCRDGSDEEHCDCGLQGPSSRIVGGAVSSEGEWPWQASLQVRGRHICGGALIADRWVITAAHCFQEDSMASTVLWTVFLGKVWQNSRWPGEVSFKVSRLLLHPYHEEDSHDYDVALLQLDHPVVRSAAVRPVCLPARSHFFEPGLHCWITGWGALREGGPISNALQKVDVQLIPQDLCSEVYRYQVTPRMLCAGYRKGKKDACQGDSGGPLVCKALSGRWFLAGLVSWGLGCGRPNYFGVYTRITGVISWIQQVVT
Format: biochemical
Description: • Method I: Test compounds were evaluated for their potential to inhibit Human Recombinant Matriptase 2 (in-house) using fluorescence based assay. The concentration of Recombinant Matriptase 2 and the substrate used in the assay was: 3.5 nM (In-house Matriptase 2) and 62 μM (Boc-Gln-Ala-Arg-7-amido-4-methyl coumarin hydrobromide −Cat log: I-1550 from Bachem) respectively. The assay buffer used was 50 mM TRIS pH 7.5, 150 mM NaCl, 0.01% Gelatin TCL059 Himedia). The assay was performed using 384 well black flat bottom plate from grenier (Cat log: 781076) at 25° C. The enzyme and compound were preincubated for 30 mins, the plate was read at 60 mins after substrate addition at wavelength Ex: 360/Em: 480 nm. The final assay volume was 20 μl. A stock solution of compounds was initially prepared in DMSO and appropriate dilutions were made and IC50 was determined for all the compounds (final DMSO conc in the assay was 1%). All the measurements were carried out using the Spectramax M5, Molecular devices.
To determine Ki values, dose response curves were generated by plotting percentage inhibition as a function of inhibitor concentration and the data was fitted to sigmoidal non-linear regression equation (variable slope) using Graph Pad prism software V8.

SMILES	pKi
CN1CCCC1COC(=O)Nc1cc(Cn2c(C(=O)O)cc3ccc(CN)cc32)c2ccccc2c1 (racemic) [Compound 398, 6-(aminomethyl)-1-{[3-({[(1-methylpyrrolidin-2-yl)methoxy]carbon-yl}amino]naphthalen-1-yl]methyl}-1H-indole-2-carboxylic acid]	5.52 to 6.30

Same assay, conditions: Table A; Ki of Matriptase-2; read-out: Mat-2 Ki

SMILES	pKi
NCc1ccc2cc(C(=O)O)n(Cc3cc(NS(=O)(=O)CC[C@@H]4CCCN4)cc4ccccc34)c2n1 [Compound 1, (S)-6-(aminomethyl)-1-((3-((2-(pyrrolidin-2-yl)ethyl)sulfonamido)naphthalen-1-yl)methyl)-1H-pyrrolo[2,3-b]pyridine-2-carboxylic acid]	≥ 7.00

Same assay, conditions: Table A; Ki of Matriptase-2 given as class symbols; read-out: Mat-2 Ki

SMILES	pKi
CN1CCC[C@@H]1COC(=O)Nc1cc(Cn2c(C(=O)O)cc3ccc(CN)nc32)c2ccccc2c1 (racemic) [Compound 335, 6-(aminomethyl)-1-{[3-({[(1-methylpyrrolidin-2-yl)methoxy]carbon-yl}amino)naphthalen-1-yl]methyl}-1H-pyrrolo-[2,3-b]pyridine-2-car-boxylic acid]	6.30 to 7.00
CN1CCO[C@@H](COC(=O)Nc2cc(Cn3c(C(=O)O)cc4ccc(CN)nc43)c3ccccc3c2)C1 (racemic) [Compound 337, 6-(aminomethyl)-1-{[3-({[(4-methylmorpholin-2-yl)methoxy]carbon-yl}amino)naphthalen-1-yl]methyl}-1H-pyrrolo-[2,3-b]pyridine-2-car-boxylic acid]	6.30 to 7.00
C[C@@H](CN1CCCCC1)OC(=O)Nc1cc(Cn2c(C(=O)O)cc3ccc(CN)nc32)c2ccccc2c1 (racemic) [Compound 339, rac-6-(aminomethyl)-1-({3-[({[(2R)-1-(piperidin-1-yl)propan-2-yl]oxy}-carbonyl)amino]naph-thalen-1-yl}methyl)-1H-pyrrolo[2,3-b]pyridine-2-carboxylic acid]	5.52 to 6.30
NCc1ccc2cc(C(=O)O)n(Cc3cc(NC(=O)OC[C@H]4CCN4Cc4ccccc4)cc4ccccc34)c2n1 (racemic) [Compound 340, rac-6-(aminomethyl)-1-({3-[({[(2R)-1-benzyl-azetidin-2-yl]methoxy}-carbonyl)amino]naph-thalen-1-yl}methyl)-1H-pyrrolo[2,3-b]pyridine-2-carboxylic acid]	5.52 to 6.30
CN1CCC(COC(=O)c2cc3ccc(CN)nc3n2Cc2cc(N[S@@+]([O-])Cc3ccccc3)cc3ccccc23)CC1 (racemic) [Compound 367]	5.52 to 6.30
CC(c1ccccc1)S(=O)(=O)Nc1cc(Cn2c(C(=O)OCC3CCN(C)CC3)cc3ccc(CN)cc32)c2ccccc2c1 (racemic) [Compound 380, (1-methylpiperidin-4-yl)-methyl 6-(aminomethyl)-1-{[3-(1-phenylethane-sulfonamido)naphthalen-1-yl]methyl}-1H-indole-2-carboxylate]	≥ 7.00
CN1CCCC(COC(=O)c2cc3ccc(CN)cc3n2Cc2cc(NS(=O)(=O)Cc3ccccc3)cc3ccccc23)C1 (racemic) [Compound 382, (1-methylpiperidin-3-yl)-methyl 6-(aminomethyl)-1-{[3-(phenylmethane-sulfonamido)naphthalen-1-yl]methyl}-1H-indole-2-carboxylate]	≥ 7.00
NCc1ccc2cc(C(=O)O)n(Cc3cc(NS(=O)(=O)C[C@H]4CNCCO4)cc4ccccc34)c2c1 (racemic) [Compound 391, 6-(aminomethyl)-1-({3-[(morpholin-2-l)methane-sulfonamido]naphthalen-1-yl}methyl)-1H-indole-2-carboxylic acid]	6.30 to 7.00

Same assay, conditions: Table B; Human Recombinant Matriptase 2, 3.5 nM enzyme, 62 μM substrate, 30 mins preincubation; read-out: Mean Ki

SMILES	pKi
CN1CCC(CCOC(=O)c2cc3ccc(CN)nc3n2Cc2cc(NS(=O)(=O)Cc3ccccc3)cc3c2CCCC3)CC1=O (stereo not drawn) [Compound 2.1]	6.30 to 7.00
CN1CCC(CCOC(=O)c2cc3ccc(CN)nc3n2Cc2cc(NS(=O)(=O)Cc3ccsc3)cc3c2CCCC3)CC1=O (stereo not drawn) [Compound 2.2]	6.30 to 7.00
CN1CCC(CCOC(=O)c2cc3ccc(CN)nc3n2Cc2cc(NS(=O)(=O)Cc3ccccc3)cc3ccccc23)CC1=O (stereo not drawn) [Compound 2.3]	≥ 7.00
CN1CCC(CCOC(=O)c2cc3ccc(CN)nc3n2Cc2cc(NS(=O)(=O)Cc3ccsc3)cc3ccccc23)CC1=O (stereo not drawn) [Compound 2.4]	≥ 7.00
CN1CC(CCOC(=O)c2cc3ccc(CN)nc3n2Cc2cc(NS(=O)(=O)Cc3ccsc3)cc3ccccc23)CC1=O (stereo not drawn) [Compound 2.6]	≥ 7.00
CN1CC(CCOC(=O)c2cc3ccc(CN)nc3n2Cc2cc(NS(=O)(=O)Cc3ccccc3)cc3ccccc23)CC1=O (stereo not drawn) [Compound 2.7]	≥ 7.00
CN(C)C(=O)CCCOC(=O)c1cc2ccc(CN)nc2n1Cc1cc(CS(=O)(=O)Cc2ccsc2)cc2ccccc12 [Compound 2.10]	≥ 7.00
NCc1ccc2cc(C(=O)OCC3CCNC(=O)C3)n(Cc3cc(NS(=O)(=O)Cc4ccsc4)cc4c3CCCC4)c2n1 (stereo not drawn) [Compound 2.11]	≥ 7.00
CN1CCC(CCOC(=O)c2cc3ccc(CN)nc3n2Cc2cc(NS(=O)(=O)Cc3ccccc3)c3ccccc3c2)CC1 [Compound 2.12]	6.30 to 7.00
NCc1ccc2cc(C(=O)OCC3CNC(=O)C3)n(Cc3cc(NS(=O)(=O)Cc4ccsc4)cc4ccccc34)c2n1 (stereo not drawn) [Compound 2.13]	≥ 7.00
CN1CCC(CCOC(=O)c2cc3ccc(CN)nc3n2Cc2cc(NS(=O)(=O)Cc3ccccc3)cc3c2CCCC3)CC1 [Compound 2.15]	≥ 7.00
CN1CCC(COC(=O)c2cc3ccc(CN)nc3n2Cc2cc(NS(=O)(=O)Cc3ccccc3)c3ccccc3c2)CC1 [Compound 2.16]	6.30 to 7.00
CN1CCC(COC(=O)c2cc3ccc(CN)nc3n2Cc2cc(NS(=O)(=O)Cc3ccsc3)cc3ccccc23)CCC1=O (stereo not drawn) [Compound 2.17]	≥ 7.00
CN1CCC(COC(=O)c2cc3ccc(CN)nc3n2Cc2cc(NS(=O)(=O)Cc3ccccc3)cc3ccccc23)CCC1=O (stereo not drawn) [Compound 2.18]	≥ 7.00
CN1CCC(COC(=O)c2cc3ccc(CN)nc3n2Cc2cc(NS(=O)(=O)Cc3ccccc3)cc3c2CCCC3)CC1=O (stereo not drawn) [Compound 2.19]	≥ 7.00
CN1CC(COC(=O)c2cc3ccc(CN)nc3n2Cc2cc(NS(=O)(=O)Cc3ccsc3)cc3ccccc23)CC1=O (stereo not drawn) [Compound 2.20]	≥ 7.00
CN1CC(COC(=O)c2cc3ccc(CN)nc3n2Cc2cc(NS(=O)(=O)Cc3ccccc3)cc3ccccc23)CC1=O (stereo not drawn) [Compound 2.21]	≥ 7.00
CN1CCC(COC(=O)c2cc3ccc(CN)nc3n2Cc2cc(NS(=O)(=O)Cc3ccsc3)cc3c2CCCC3)CC1=O (stereo not drawn) [Compound 2.22]	≥ 7.00
CN1CCC(CCCOC(=O)c2cc3ccc(CN)nc3n2Cc2cc(NS(=O)(=O)Cc3ccccc3)cc3ccccc23)CC1 [Compound 2.23]	≥ 7.00
NCc1ccc2cc(C(=O)NCc3ccc(N)cc3)n(Cc3cc(NS(=O)(=O)Cc4ccccc4)cc4ccccc34)c2n1 [Compound 2.24]	≥ 7.00
CB1C=Cc2c(Cn3c(C(=O)OCC4CCN(C)CC4)cc4ccc(CN)nc43)cc(NS(=O)(=O)Cc3ccccc3)cc2N1 [Compound 2.25]	≥ 7.00
CN1CCC(COC(=O)c2cc3ccc(CN)nc3n2Cc2cccn3nccc23)CC1 [Compound 2.26]	< 5.52
CN(C)c1ccc(COC(=O)c2cc3ccc(CN)nc3n2Cc2cc(NS(=O)(=O)Cc3ccccc3)cc3ccccc23)cc1 [Compound 2.27]	6.30 to 7.00
CN1CCC(COC(=O)c2cc3ccc(CN)nc3n2Cc2cc(NS(=O)(=O)CC3CC3)cc3ccccc23)CC1 [Compound 2.28]	6.30 to 7.00
Cn1ccnc1CCOC(=O)c1cc2ccc(CN)nc2n1Cc1cc(NS(=O)(=O)Cc2ccsc2)cc2ccccc12 [Compound 2.29]	≥ 7.00
C=Cc1c(N)cc(Br)cc1Cn1c(C(=O)OCC2CCN(C)CC2)cc2ccc(CN)nc21 [Compound 2.30]	< 5.52
CB1C=Cc2c(Cn3c(C(=O)OCC4CCN(C)CC4)cc4ccc(CN)nc43)cc(Br)cc2N1 [Compound 2.31]	5.52 to 6.30
CN1CCC(COC(=O)c2cc3ccc(CN)nc3n2Cc2cc(NS(=O)(=O)Cc3ccsc3)cc3ccccc23)CC1=O (stereo not drawn) [Compound 2.32]	≥ 7.00
CN1CCC(C(OC(=O)c2cc3ccc(CN)nc3n2Cc2cc(NS(=O)(=O)Cc3ccccc3)cc3ccccc23)C2CC2)CC1 (stereo not drawn) [Compound 2.33]	≥ 7.00
